Laboratory results published in patent US20250313563A1, “GLYCOGEN SYNTHASE KINASE 3 INHIBITORS AND USES THEREOF” (The Broad Institute, Inc., priority 2022, published 2025).
Like-named read-outs stand apart in the source and are kept apart here.

How the values were obtained:
[1] = biological target: GSK3α (GST-full length GSK3α) (Homo sapiens (Human), UniProt P49840); assay: GSK3α TR-FRET kinase assay; type: biochemical
Experimental: (§1) TR-FRET Assay: The assay was performed in a white, 384 well, low volume, flat bottom plate (Grenier). After a 30 minute preincubation in assay buffer with the indicated concentration of compound, the kinase activity was initiated by the addition of the substrates. 1 nM GSK3α (GST-full length GSK3α [SignalChem G08-10G]) or 1 nM GSK3b (GST-full length GSK3b: [SignalChem G08-9G]) were then incubated at ambient temperature for 100 minutes in 10 μL of 50 mM Tris, pH 7.5, 20 mM MgCl2, 0.05 mM DTT, 100 μg/mL BSA and 1% DMSO, with 200 nM biotinylated peptide substrate (biotinylated and S645 phosphorylated glycogen synthase 631-650) and either 4 μM ATP (GSK3α, Table 16) or 2 μM ATP (GSK3b, Table 16) or 1 mM ATP (Table 17). The kinase activity was quenched with 2 μL of 250 mM EDTA. A 10 μL volume of 40 nM Strepavidin-d2, 2 nM Tb^2+-pSer641 antibody in TR-FRET Detection Buffer (Invitrogen) was then added. After 60 min at room temperature the plate was read on Envision plate reader using Ex: 340 nm, Em: 615 nm and […]. The normalized 665/615 Signal ratio versus log compound concentration was analyzed by XLFIT to yield IC50 values.

[2] = biological target: GSK3b (GST-full length GSK3b) (Homo sapiens (Human), UniProt P49841); assay: GSK3b TR-FRET kinase assay; type: biochemical
Experimental: as §1

[3] = 1 nM GSK3α, 4 μM ATP, 30 minute preincubation, read-out: GSK3-A TR-FRET BIOCHEMICAL (TR-FRET), IC50
[4] = 1 nM GSK3b, 2 μM ATP, 30 minute preincubation, read-out: GSK3-B TR-FRET BIOCHEMICAL (TR-FRET), IC50
[5] = 1 nM GSK3α, 4 μM ATP, 30 minute preincubation, Table 16, read-out: GSK3-A TR-FRET BIOCHEMICAL (TR-FRET), IC50
[6] = 1 nM GSK3b, 2 μM ATP, 30 minute preincubation, Table 16, read-out: GSK3-B TR-FRET BIOCHEMICAL (TR-FRET), IC50
[7] = 1 nM GSK3α, 4 μM ATP, 30 minute preincubation, geometric mean, read-out: GSK3-A TR-FRET BIOCHEMICAL (TR-FRET), GMean, IC50
[8] = 1 nM GSK3b, 2 μM ATP, 30 minute preincubation, geometric mean, read-out: GSK3-B TR-FRET BIOCHEMICAL (TR-FRET), GMean, IC50
[9] = 1 nM GSK3α, 4 μM ATP, 30 minute preincubation, Table 16, read-out: GSK3-A TR-FRET BIOCHEMICAL (TR-FRET)
[10] = 1 nM GSK3b, 2 μM ATP, 30 minute preincubation, Table 16, read-out: GSK3-B TR-FRET BIOCHEMICAL (TR-FRET)
[11] = GSK3-A (TR-FRET 1 mM ATP), GMean, IC50, 1 mM ATP, geometric mean
[12] = GSK3-B (TR-FRET 1 mM ATP), GMean, IC50, 1 mM ATP, geometric mean
[13] = read-out: GSK3-A (TR-FRET 1 mM ATP), GMean, IC50, 1 mM ATP, geometric mean
[14] = read-out: GSK3-B (TR-FRET 1 mM ATP), GMean, IC50, 1 mM ATP, geometric mean

Chain of GSK3α (GST-full length GSK3α) (P49840 whole entry): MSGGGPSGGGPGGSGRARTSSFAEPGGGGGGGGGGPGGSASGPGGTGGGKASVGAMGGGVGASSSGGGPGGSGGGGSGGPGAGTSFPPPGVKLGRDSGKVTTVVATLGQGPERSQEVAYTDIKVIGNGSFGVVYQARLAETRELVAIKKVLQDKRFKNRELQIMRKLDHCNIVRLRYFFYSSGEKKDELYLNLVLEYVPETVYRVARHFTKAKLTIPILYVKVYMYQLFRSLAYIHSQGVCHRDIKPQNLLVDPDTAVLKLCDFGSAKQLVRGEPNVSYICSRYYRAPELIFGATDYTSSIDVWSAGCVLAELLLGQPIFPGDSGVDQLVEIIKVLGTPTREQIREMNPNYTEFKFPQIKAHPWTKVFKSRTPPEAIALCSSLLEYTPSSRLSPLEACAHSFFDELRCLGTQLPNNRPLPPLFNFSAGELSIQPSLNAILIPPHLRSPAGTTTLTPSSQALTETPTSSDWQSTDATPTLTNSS
Chain of GSK3b (GST-full length GSK3b) (P49841 whole entry): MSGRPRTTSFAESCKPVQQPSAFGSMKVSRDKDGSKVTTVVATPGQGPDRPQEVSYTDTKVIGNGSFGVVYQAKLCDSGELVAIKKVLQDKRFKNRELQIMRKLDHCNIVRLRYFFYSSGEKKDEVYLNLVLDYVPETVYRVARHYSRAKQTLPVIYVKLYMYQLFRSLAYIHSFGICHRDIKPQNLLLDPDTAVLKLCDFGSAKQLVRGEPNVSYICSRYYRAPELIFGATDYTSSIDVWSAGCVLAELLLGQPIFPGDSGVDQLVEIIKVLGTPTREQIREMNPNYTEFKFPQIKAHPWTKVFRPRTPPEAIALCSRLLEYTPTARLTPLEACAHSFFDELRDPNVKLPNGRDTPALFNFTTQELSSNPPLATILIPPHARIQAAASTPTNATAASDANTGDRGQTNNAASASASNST

CC1(C)CC(=O)C2=C(C1)Nc1n[nH]cc1C21COC2(CN(C(=O)C3(F)CC3)C2)C1 (stereo not shown) [Compound 947487]
IC50 [1, 3]: ≤ 100 nM
IC50 [2, 4]: ≤ 100 nM

CCC1(c2cccc(-c3ccncc3)c2)C2=C(CC(C)(C)CC2=O)Nc2n[nH]cc21 (stereo not shown) [Compound 883984]
IC50 [1, 5]: ≤ 100 nM
IC50 [2, 6]: ≤ 100 nM

CCC1(c2cccc(-c3ccnc(C)c3C)c2)C2=C(CC(C)(C)NC2=O)Nc2n[nH]c(C)c21 (stereo not shown) [Compound 947399]
IC50 [1, 7]: 100 to 1000 nM
IC50 [2, 8]: 1000 to 5000 nM

CCC1(c2cccc(S(=O)(=O)Cc3ccccc3)c2)C2=C(CC(C)(C)CC2=O)Nc2n[nH]cc21 (stereo not shown) [Compound 913258]
IC50 [1, 5]: ≤ 100 nM
IC50 [2, 6]: ≤ 100 nM

CC[C@]1(c2ccccc2)C2=C(CC(C)(C)CC2=O)Nc2n[nH]c(Br)c21 [Compound 792341]
IC50 [1, 7]: 100 to 1000 nM
IC50 [2, 8]: 100 to 1000 nM

COc1ccc(S(=O)(=O)N2CCC3(CC2)C2=C(CC(C)(C)CC2=O)Nc2n[nH]cc23)c(C)c1C [Compound 945662]
IC50 [1, 9]: ≤ 100 nM
IC50 [2, 10]: 100 to 1000 nM

CO[C@H]1C[C@@]2(C1)C1=C(CC(C)(C)CC1=O)Nc1n[nH]cc12 [Compound 901472]
IC50 [1, 5]: > 5000 nM
IC50 [2, 6]: > 5000 nM

CC[C@@H]1C[C@@]2(CCO1)C1=C(CC(C)(C)CC1=O)Nc1n[nH]cc12 [Compound 924715]
IC50 [1, 9]: ≤ 100 nM
IC50 [2, 10]: 100 to 1000 nM

CC[C@]1(c2ccccc2)C2=C(Nc3n[nH]cc31)[C@H](F)C(C)(C)CC2=O [Compound 957200]
IC50 [1, 9]: 100 to 1000 nM
IC50 [1, 11]: > 5000 nM
IC50 [2, 10]: 100 to 1000 nM
IC50 [2, 12]: > 5000 nM

CC1(C)CC(=O)C2=C(C1)Nc1n[nH]cc1C21CCN(S(=O)(=O)c2cc(F)ccc2F)CC1 [Compound 948121]
IC50 [1, 9]: ≤ 100 nM
IC50 [1, 11]: 100 to 1000 nM
IC50 [2, 10]: ≤ 100 nM
IC50 [2, 12]: 100 to 1000 nM

CC[C@@]1(c2cccc(C(F)(F)F)c2)C2=C(CCN(C(C)C)C2=O)Nc2n[nH]cc21 [Compound 857336]
IC50 [1, 3]: ≤ 100 nM
IC50 [2, 4]: 100 to 1000 nM

CC1(C)CC(=O)C2=C(C1)Nc1n[nH]cc1C21CCN(S(=O)(=O)C2CC2)CC1 [Compound 901470]
IC50 [1, 9]: ≤ 100 nM
IC50 [1, 11]: 100 to 1000 nM
IC50 [2, 10]: ≤ 100 nM
IC50 [2, 12]: 100 to 1000 nM

CC[C@@]1(c2ccccc2)C2=C(CC3(CCC3)CC2=O)Nc2n[nH]cc21 [Compound 819573]
IC50 [1, 7]: ≤ 100 nM
IC50 [2, 8]: 100 to 1000 nM

CCC1(c2cccc(N3CCOCC3)c2)C2=C(CC(C)(C)CC2=O)Nc2n[nH]c(C)c21 (stereo not shown) [Compound 889582]
IC50 [1, 5]: 100 to 1000 nM
IC50 [2, 6]: 1000 to 5000 nM

CC1(C)CC(=O)C2=C(Nc3n[nH]cc3[C@]23CC[C@@H](C(F)(F)F)CC3)[C@@H]1F [Compound 918284]
IC50 [1, 9]: ≤ 100 nM
IC50 [2, 10]: ≤ 100 nM

CCC1(c2cccc(-c3ccnc(C)c3)c2)C2=C(CC(C)(COC)NC2=O)Nc2n[nH]cc21 (stereo not shown) [Compound 948521]
IC50 [1, 7]: ≤ 100 nM
IC50 [2, 8]: 1000 to 5000 nM

CC[C@]1(c2cccc([C@@H]3CCOC(C)(C)C3)c2)C2=C(CC(C)(C)CC2=O)Nc2n[nH]cc21 [Compound 912091]
IC50 [1, 5]: > 5000 nM
IC50 [2, 6]: > 5000 nM

CCC1(c2cccc(-c3ccnc(C)c3)c2)C2=C(CC3(CCOCC3)NC2=O)Nc2n[nH]cc21 (stereo not shown) [Compound 948524]
IC50 [1, 7]: 1000 to 5000 nM
IC50 [2, 8]: > 5000 nM

C[C@H]1C[C@]2(CCN1S(=O)(=O)c1ccn(C)n1)C1=C(CC(C)(C)CC1=O)Nc1n[nH]cc12 [Compound 926832]
IC50 [1, 9]: ≤ 100 nM
IC50 [2, 10]: 100 to 1000 nM

CC(=O)N1CC2(C1)C1=C(CC(C)(C)CC1=O)Nc1n[nH]cc12 [Compound 893314]
IC50 [1, 5]: 1000 to 5000 nM
IC50 [2, 6]: > 5000 nM

CC[C@H]1C[C@]2(CO1)C1=C(CC(C)(C)CC1=O)Nc1n[nH]cc12 [Compound 913216]
IC50 [1, 9]: 100 to 1000 nM
IC50 [2, 10]: 100 to 1000 nM

CCN(c1cccc(C2(CC)C3=C(CC(C)(C)CC3=O)Nc3n[nH]cc32)c1)c1cccnc1C (stereo not shown) [Compound 885367]
IC50 [1, 5]: 100 to 1000 nM
IC50 [2, 6]: 1000 to 5000 nM

CC[C@@]1(c2cccc(-c3ccncc3F)c2)C2=C(CC(C)(C)NC2=O)Nc2n[nH]c(Cl)c21 [Compound 949757]
IC50 [1, 5]: ≤ 100 nM
IC50 [1, 13]: 100 to 1000 nM
IC50 [2, 6]: ≤ 100 nM
IC50 [2, 14]: 1000 to 5000 nM

Cc1nc(C)c(S(=O)(=O)N2CCC3(CC2)C2=C(CC(C)(C)CC2=O)Nc2n[nH]cc23)s1 [Compound 947259]
IC50 [1, 9]: ≤ 100 nM
IC50 [2, 10]: ≤ 100 nM

CC(=O)N1C[C@@]2(C[C@@]3(CO2)C2=C(CC(C)(C)CC2=O)Nc2n[nH]cc23)[C@@H]1C [Compound 948440]
IC50 [1, 3]: ≤ 100 nM
IC50 [2, 4]: ≤ 100 nM

CC[C@@]1(c2ccccc2)C2=C(C[C@H](C)CC2=O)Nc2n[nH]cc21 [Compound 789009]
IC50 [1, 7]: > 5000 nM
IC50 [2, 8]: > 5000 nM

CC[C@@]1(c2cccc(C(F)(F)F)c2)C2=C(CNC2=O)Nc2n[nH]cc21 [Compound 917157]
IC50 [1, 9]: > 5000 nM
IC50 [2, 10]: > 5000 nM

CCC1(c2cccc(OC(C)C)c2)C2=C(CC(C)(C)CC2=O)Nc2n[nH]cc21 (stereo not shown) [Compound 801448]
IC50 [1, 7]: ≤ 100 nM
IC50 [2, 8]: 100 to 1000 nM

CCC1(c2cccc(S(=O)(=O)C3CC3)c2)C2=C(CC(C)(C)NC2=O)Nc2n[nH]cc21 (stereo not shown) [Compound 946004]
IC50 [1, 3]: 100 to 1000 nM
IC50 [2, 4]: > 5000 nM

CCC1(c2cccc(C(F)(F)F)c2)C2=C(CC(C)(C)N(C)C2=O)Nc2n[nH]cc21 (stereo not shown) [Compound 826791]
IC50 [1, 3]: 100 to 1000 nM
IC50 [2, 4]: 1000 to 5000 nM

CC1(C)CC(=O)C2=C(C1)Nc1n[nH]cc1C21COC2(CN(C(=O)C3CCOCC3)C2)C1 (stereo not shown) [Compound 945407]
IC50 [1, 3]: ≤ 100 nM
IC50 [2, 4]: 100 to 1000 nM

CCC1(c2cccc(S(=O)(=O)C3CC3)c2)C2=C(CC(C)(C)CC2=O)Nc2n[nH]c(C(F)(F)F)c21 (stereo not shown) [Compound 945713]
IC50 [1, 9]: ≤ 100 nM
IC50 [1, 13]: ≤ 100 nM
IC50 [2, 10]: ≤ 100 nM
IC50 [2, 14]: ≤ 100 nM

CCC1(c2cccc(C(C)C)c2)C2=C(CC(C)(C)NC2=O)Nc2n[nH]cc21 (stereo not shown) [Compound 949761]
IC50 [1, 5]: ≤ 100 nM
IC50 [1, 13]: 100 to 1000 nM
IC50 [2, 6]: 100 to 1000 nM
IC50 [2, 14]: > 5000 nM

CCC1(c2ccccc2)C2=C(CS(=O)(=O)CC2=O)Nc2n[nH]cc21 (stereo not shown) [Compound 811512]
IC50 [1, 3]: > 5000 nM
IC50 [2, 4]: > 5000 nM

CCC1(c2cccc(N(C)c3ncccn3)c2)C2=C(CC(C)(C)NC2=O)Nc2n[nH]c(C)c21 (stereo not shown) [Compound 949182]
IC50 [1, 7]: ≤ 100 nM
IC50 [2, 8]: ≤ 100 nM

CC[C@]1(c2cccc(-c3ccncc3F)c2)C2=C(CC(C)(C)NC2=O)Nc2n[nH]c(Cl)c21 [Compound 949756]
IC50 [1, 5]: > 5000 nM
IC50 [2, 6]: > 5000 nM

CC[C@@]1(c2cccc(-c3ccnc4c3cnn4C)c2)C2=C(CC(C)(C)NC2=O)Nc2n[nH]cc21 [Compound 948817]
IC50 [1, 7]: > 5000 nM
IC50 [2, 8]: > 5000 nM

CC[C@]1(c2cccc(-c3cc(C(C)(C)C)nn3C)c2)C2=C(CC(C)(C)NC2=O)Nc2n[nH]cc21 [Compound 951843]
IC50 [1, 5]: 100 to 1000 nM
IC50 [2, 6]: > 5000 nM
